In patent EP4417607A1, “HETEROCYCLIC COMPOUND AS SOS1 INHIBITOR AND USES THEREOF” (Nanjing Zaiming Pharmaceutical Co., Ltd., priority 2021, dated 2023):

What was measured:
[1] = test system: H358 cells; assay: H358 cell proliferation inhibition (CellTiter-Glo luminescent cell viability assay); type: cell-based; conditions: Homo sapiens, NCI-H358, 168 h, 7 days
Protocol: The effect of the compounds of the present invention on H358 cell proliferation was assessed by CellTiter-Glo luminescent cell viability assay kit method.
H358 cells (ATCC, CRL-5807) were cultured in RPMI1640 (Hyclone, SH30256.01) complete medium containing 10% FBS (Gibco, 10100147) and 100 U/mL penicillin-streptomycin mixed solution (Gibco, 15140163). When the cells grew to 80-90%, the cells were digested, pipetted, and seeded in a 96-well plate (Corning, 4515) at 3000 cells/well (180 µL RPMI1640 complete medium), and then the 96-well plate was incubated overnight in an incubator at 37 °C with 5% CO2.
After incubation overnight, 20 µL of a diluted test compound was added to each well using a multi-channel pipette, and the 96-well plate was placed in an incubator at 37 °C with 5% CO2 for further culture. After 7 days, 100 µL of the supernatant was pipetted and discarded. 50 µL of CellTiter-Glo® 3D Cell Viability Assay liquid was added to each well. The plate was shaken at room temperature at 450 rpm for 30 min. After the cells were completely lysed, "Luminescence" on the microplate reader was selected for plate reading. In this experiment, the cell-free group (replaced with 1640 medium) was used as the 100% inhibition group, and the compound-free group in which the cell was added was used as the 0% inhibition group.
The inhibition percentage of H358 cell proliferation by the compounds of the present invention could be calculated by the following formula: [formula]
IC50 values of the compounds were calculated from 8 concentration points using XLfit (ID Business Solutions Ltd., UK) software by the following formula: Y = Bottom + (Top−Bottom)/(1+10^(∧)((logIC50−X)×slopefactor)) [formula]
Y is the inhibition percentage, X is the logarithmic value of the concentration of the test compound, Bottom is the minimum inhibition percentage, Top is the maximum inhibition percentage, and slope factor is the slope coefficient of the curve.

[2] = test system: p-ERK pathway in H358 cells; assay: p-ERK pathway inhibition in H358 cells (Advanced phospho-ERK (Thr202/Tyr204) cellular kit, HTRF); type: cell-based; conditions: Homo sapiens, NCI-H358, 1 h compound incubation
Summary of the method: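 IC50 from an 8-point four-parameter fit of % inhibition of ERK Thr202/Tyr204 phosphorylation, measured by HTRF 665/620 ratio in lysates. H358 cells were seeded at 50000/well, starved overnight without serum, and exposed to compound 1 h at 37 °C; controls were cell-free (100%) and untreated (0%).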

SMILES | IC50 [1] | IC50 [2]
Cc1nc(N[C@H](C)c2cccc(C(F)F)c2F)c2cn(C3(CF)CC3)c(=O)c(-n3ncc4ncccc43)c2n1 [Example 104, (R)-4-((1-(3-(difluoromethyl)-2-fluorophenyl)ethyl)amino)-6-(1-(fluoromethyl)cyclopropyl)-2-methyl-8-(1H-pyrazolo[4,3-b]pyridin-1-yl)pyrido[4,3-d]pyrimidine-7(6H)-one] | 145 nM | 57.5 nM
Cc1nc(N[C@H](C)c2cccc(S(F)(F)(F)(F)F)c2)c2cn(C3(CF)CC3)c(=O)c(N3CCOCC3)c2n1 [Example 46, (R)-6-(1-(fluoromethyl)cyclopropyl)-2-methyl-8-morpholino-4-((1-(3-(pentafluoro-λ^6-sulfanyl)phenyl)ethyl)amino)pyrido[4,3-d]pyrimidine-7(6H)-one] | 74.8 nM | 112 nM
Cc1nc(N[C@H](C)c2cccc(C(F)F)c2F)c2cn(C3(CF)CC3)c(=O)c(OC(C)C)c2n1 [Example 36, (R)-4-((1-(3-(difluoromethyl)-2-fluorophenyl)ethyl)amino)-6-(1-(fluoromethyl)cyclopropyl)-8-isopropoxy-2-methylpyrido[4,3-d]pyrimidine-7(6H)-one] | 64.8 nM | 69.1 nM
Cc1nc(N[C@H](C)c2cccc(C(F)F)c2F)c2cn(C3(CF)CC3)c(=O)c(N3CCC(N4CCCC4)CC3)c2n1 [Example 159] | 51.5 nM | 138 nM
CC[C@H]1COCCN1c1c(=O)n(C2(CF)CC2)cc2c(N[C@H](C)c3cccc(C(F)F)c3F)nc(C)nc12 [Example 58, 4-(((R)-1-(3-(difluoromethyl)-2-fluorophenyl)ethyl)amino)-8-((S)-3-ethylmorpholino)-6-(1-(fluoromethyl)cyclopropyl)-2-methylpyrido[4,3-d]pyrimidine-7(6H)-one] | 57.9 nM | 112 nM
[2H]C([2H])([2H])Oc1c(=O)n(C2(CF)CC2)cc2c(N[C@H](C)c3cccc(S(F)(F)(F)(F)F)c3)nc(C)nc12 [Example 31, (R)-6-(1-(fluoromethyl)cyclopropyl)-8-(methoxy-d3)-2-methyl-4-((1-(3-(pentafluoro-λ^6-sulfanyl)phenyl)ethyl)amino)pyrido[4,3-d]pyrimidine-7(6H)-one] | 133 nM | 73 nM
COC1(c2c(=O)n(C3(CF)CC3)cc3c(N[C@H](C)c4cccc(C(F)F)c4F)nc(C)nc23)COC1 [Example 150, (R)-4-((1-(3-(difluoromethyl)-2-fluorophenyl)ethyl)amino)-6-(1-(fluoromethyl)cyclopropyl)-8-(3-methoxyoxetan-3-yl)-2-methylpyrido[4,3-d]pyrimidine-7(6H)-one] | 68.7 nM | 42.8 nM
Cc1nc(N[C@H](C)c2cccc(C(F)F)c2F)c2cn(N3CCOCC3)c(=O)c(-c3cnc4c(cnn4C)c3)c2n1 [Example 100] | 80.8 nM | 49.8 nM
COc1c(=O)n(C2(CF)CCN(C(C)=O)C2)cc2c(N[C@H](C)c3cccc([N+](=O)[O-])c3C)nc(C)nc12 (stereo partly drawn) [Example 16, 6-(1-acetyl-3-(fluoromethyl)pyrrolidin-3-yl)-8-methoxy-2-methyl-4-(((R)-1-(2-methyl-3-nitrophenyl)ethyl)amino)pyrido[4,3-d]pyrimidine-7(6H)-one] | 187 nM | 28 nM
Cc1nc(N[C@H](C)c2cccc(C#N)c2C)c2cn(N3CCOCC3)c(=O)c(N3CCOC[C@@H]3C)c2n1 [Example 110, 2-methyl-3-((R)-1-((2-methyl-8-((S)-3-methylmorpholine)-6-morpholine-7-oxo-6,7-dihydropyrido[4,3-d]pyrimidin-4-yl)amino)ethyl)benzonitrile] | 50.4 nM | 73.6 nM
Cc1nc(N[C@H](C)c2cccc(C(F)F)c2F)c2cn(C3(CF)CC3)c(=O)c(N3CC4CC(C3)N4C3COC3)c2n1 [Example 152, 4-(((R)-1-(3-(difluoromethyl)-2-fluorophenyl)ethyl)amino)-6-(1-(fluoromethyl)cyclopropyl)-2-methyl-8-(6-(oxetan-3-yl)-3,6-diazabicyclo[3.1.1]heptan-3-yl)pyrido[4,3-d]pyrimidine-7(6H)-one] | 13.6 nM | 76.3 nM
Cc1nc(N[C@H](C)c2cccc(C(F)F)c2F)c2cn(C3(CF)CC3)c(=O)c(N=S(C)(C)=O)c2n1 [Example 103, (R)-4-((1-(3-(difluoromethyl)-2-fluorophenyl)ethyl)amino)-8-((dimethyl(oxo)-λ^6-sulfanylidene)amino)-6-(1-(fluoromethyl)cyclopropyl)-2-methylpyrido[4,3-d]pyrimidine-7(6H)-one] | 130 nM | 82.4 nM

More lines, in order of falling IC50 [1], values ahead:

IC50 [1] | IC50 [2] | SMILES
36.2 nM | 31 nM | [2H]C1([2H])COC[C@H](C)N1c1c(=O)n(C2(CF)CC2)cc2c(N[C@H](C)c3cccc(C(F)F)c3F)nc(C)nc12 [Example 175]
35.7 nM | 107 nM | COc1c(=O)n(N2CCOCC2)cc2c(N[C@H](C)c3cccc(S(F)(F)(F)(F)F)c3)nc(C)nc12 [Example 25]
35.4 nM | 16.7 nM | [2H]C([2H])([2H])[C@@H](Nc1nc(C)nc2c(N3CCOCC3)c(=O)n(C3(CF)CC3)cc12)c1cccc(C(F)F)c1F [Example 90]
32.7 nM | 38.7 nM | Cc1nc(N[C@H](C)c2cccc(C(F)F)c2F)c2cn(C3(CF)CC3)c(=O)c(N3CCOC[C@H]3C)c2n1 [Example 39, 4-(((R)-1-(3-(difluoromethyl)-2-fluorophenyl)ethyl)amino)-6-(1-(fluoromethyl)cyclopropyl)-2-methyl-8-((R)-3-methylmorpholine)pyrido[4,3-d]pyrimidine-7(6H)-one]
31.4 nM | 18.9 nM | Cc1nc(N[C@H](C)c2cccc(C(F)F)c2F)c2cn(C3(CF)CC3)c(=O)c(N3CCC(C)(O)CC3)c2n1 [Example 45, (R)-4-((1-(3-(difluoromethyl)-2-fluorophenyl)ethyl)amino)-6-(1-(fluoromethyl)cyclopropyl)-8-(4-hydroxy-4-methylpiperidin-1-yl)-2-methylpyrido[4,3-d]pyrimidine-7(6H)-one]
25.2 nM | 15.3 nM | Cc1nc(N[C@H](C)c2cccc(C(F)F)c2F)c2cn(N3CCOCC3)c(=O)c(N3CCOC[C@@H]3C)c2n1 [Example 68, 4-(((R)-1-(3-(difluoromethyl)-2-fluorophenyl)ethyl)amino)-2-methyl-8-((S)-3-methylmorpholine)-6-morpholinepyrido[4,3-d]pyrimidine-7(6H)-one]
24.1 nM | 43.7 nM | Cc1nc(N[C@H](C)c2cccc(C(F)F)c2F)c2cn(C3(CF)CC3)c(=O)c(N3CCN(C4CC4)CC3)c2n1 [Example 142, (R)-8-(4-cyclopropylpiperazin-1-yl)-4-((1-(3-(difluoromethyl)-2-fluorophenyl)ethyl)amino)-6-(1-(fluoromethyl)cyclopropyl)-2-methylpyrido[4,3-d]pyrimidine-7(6H)-one]
23.7 nM | 35.5 nM | Cc1nc(N[C@H](C)c2cccc(C(F)F)c2F)c2cn(C3(CF)CC3)c(=O)c(N3CCN(CC4(C)COC4)CC3)c2n1 [Example 109, (R)-4-((1-(3-(difluoromethyl)-2-fluorophenyl)ethyl)amino)-6-(1-(fluoromethyl)cyclopropyl)-2-methyl-8-(4-((3-methyloxetan-3-yl)methyl)piperazin-1-yl)pyrido[4,3-d]pyrimidine-7(6H)-one]
22.8 nM | 16.4 nM | Cc1nc(N[C@H](C)c2cccc(C(F)F)c2F)c2cn(C3(CF)CC3)c(=O)c(NC3COC3)c2n1 [Example 61, (R)-4-((1-(3-(difluoromethyl)-2-fluorophenyl)ethyl)amino)-6-(1-(fluoromethyl)cyclopropyl)-2-methyl-8-(oxetan-3-ylamino)pyrido[4,3-d]pyrimidine-7(6H)-one]
16.8 nM | 60.9 nM | Cc1nc(N[C@H](C)c2cccc(C(F)F)c2F)c2cn(C3(CF)CC3)c(=O)c(N3CCN(C(C)C)CC3)c2n1 [Example 94, (R)-4-((1-(3-(difluoromethyl)-2-fluorophenyl)ethyl)amino)-6-(1-(fluoromethyl)cyclopropyl)-8-(4-isopropylpiperazin-1-yl)-2-methylpyrido[4,3-d]pyrimidine-7(6H)-one]
15.8 nM | 34.8 nM | Cc1nc(N[C@H](C)c2cccc(C(F)F)c2F)c2cn(C3(CF)CC3)c(=O)c(N3CCN(C4(C)COC4)CC3)c2n1 [Example 143]
12.5 nM | 145 nM | Cc1nc(N[C@H](C)c2cccc(C(F)F)c2F)c2cn(C3(CF)CC3)c(=O)c(N3CCC(N(C)C)CC3)c2n1 [Example 158]
